Read-outs that look alike come from different tables or passages of the source.
What was measured:
ferrous Ns H-NOX = experiment: CO and NO binding kinetics to ferrous Ns H-NOX; parameters: species or system Nostoc sp; conditions: for kOFF: 6c-CO complex / 1st 6c-NO complex, 20 – 25 °C
sGC = conditions: cited from earlier work; for Kd / kOFF: sGC
ferric sGC = conditions: cited from earlier work
[1] = ferrous, 37 °C; cited from earlier work

In the case of `[C-]#[O+]` [CO, carbon monoxide], the “rate of reaction with CO, Ns H-NOX relative to sGC” value (ferrous Ns H-NOX) is reported as 100 fold, the “second-order rate constant of CO binding” value (ferrous Ns H-NOX; 5 µM ferrous Ns H-NOX, [CO] 25 to 166 µM, 24 °C, two separately purified samples) is reported as 2 – 3 × 10^6 M^−1s^−1 and the “Kd for CO binding, ratio koff/kon” value (ferrous Ns H-NOX; 3.6 s^-1/3.0 µM^−1s^−1) is reported as 1.2 µM. For the same molecule, the “CO association rate constant (free linear fit)” value (ferrous Ns H-NOX; 24 °C) was 2.9e+06 M⁻¹ s⁻¹, the “CO dissociation rate constant (koff) from y-axis intercept of kobs versus [CO]” value (ferrous Ns H-NOX; 24 °C) was 23 s⁻¹ and the kOFF (ferrous Ns H-NOX; Ns H-NOX) was 3.6 s⁻¹. For the same molecule, the Kd (sGC; 4 °C) was 260 µM and the kOFF (sGC; 4 °C) was 10.7 s⁻¹.

In the case of `[N-]=[N+]=[N-]` [N3^−, azide], the Kd (ferric sGC) is listed as 26000 µM and the “observed rate constant of azide binding” value (ferric Ns H-NOX) is listed as ~ 0.015 s^−1.

In the case of `O=O` [O2, oxygen], the “O2 binding (comment)” value (sGC) is listed as “No O2 binding at 1 atm, 10 °C”.

With nitric oxide [NO] the “fraction of 5c NO-heme in final NO-heme complex” value (ferrous Ns H-NOX; EPR, large excess (1 atm) of NO gas, wild type Ns H-NOX) was ~ 40%, the “overall equilibrium affinity for NO relative to CO” value (ferrous Ns H-NOX; Ns H-NOX) was 4 orders of magnitude and the kOFF (ferrous Ns H-NOX; Ns H-NOX) was 0.05 s⁻¹. The “first order rate constant of 6c-NO to 5c-NO conversion, first phase” value (ferrous Ns H-NOX; excess NO, independent of [NO]) was ~ 7 s^−1, the “first order rate constant of 6c-NO to 5c-NO conversion, second phase” value (ferrous Ns H-NOX; excess NO, independent of [NO]) was 0.3 s⁻¹ and the “NO association rate constant for first 6c-NO complex” value (ferrous Ns H-NOX; flow-flash, 436 and 418 nm, 24 °C) was 200 – 400 µM^−1s^−1 and ≈ 300 µM^−1s^−1. The “NO dissociation first order rate constant, minor slow phase” value (ferrous Ns H-NOX; initial 6c-NO complex mixed with 0.5 mM CO and 25 mM dithionite) was 0.007 s⁻¹, the Kd (ferrous Ns H-NOX; read-out: apparent Kd for first NO binding step) was roughly 0.00017 µM and the kOFF (sGC; 5c (off), 10 °C) was 0.0006 s⁻¹. For the same molecule, the Kd (sGC; 10 °C, calculated as kOFF/kON) was 4.2e-06 µM.

B1: β1(1–194): truncated sGC β1 heme domain corresponding to the H-NOX domain (protein, UniProt Q02153 1-194, looked up, fragment)
chain: MYGFVNHALELLVIRNYGPEVWEDIKKEAQLDEEGQFLVRIIYDDSKTYDLVAAASKVLNLNAGEILQMFGKMFFVFCQESGYDTILRVLGSNVREFLQNLDALHDHLATIYPGMRAPSFRCTDAEKGKGLILHYYSEREGLQDIVIGIIKTVAQQIHGTEIDMKVIQQRNEECDHTQFLIEEKESKEEDFYED
modifications: H-NOX domain
For B1, the rate of autooxidation [1] is listed as 4.3 h⁻¹.

B2: β2(1–217): truncated sGC β2 heme domain (protein, UniProt O75343 1-217, looked up, fragment)
chain: MSGYDRMLRTLGGNLMEFIENLDALHSYLALSYQEMNAPSFRVERGADGKMFLHYYSDRSGLCHIVPGIIEAVAKDFFDIDVIMDILDMNEEVERTGKKEHVVFLIVQKAHRKMRKTKPKRLQDSQGMERDQEALQAAFLKMKEKYLNVSACPVKKSHWDVVRSIVMFGKGHLMNTFEPIYPERLWIEEKTFCNAFPFHIVFDESLQVKQARVNIQK
modifications: heme domain
For B2, the rate of autooxidation [1] is given as 0.18 h⁻¹.

— article PMC2914821 (Biochemistry, 2010)
